Data reported in article PMC10343216 (Molecules, 2023).
Values joined by “and” are separate entries in the source; they are usually repeats but may differ in a detail not shown here. Identical values can stand only once. Like-named read-outs stand apart in the source and are kept apart here.

Assays:
human 11β-HSD1 = biological target: T1, human 11β-HSD1 (Homo sapiens, UniProt P28845); assay: Human 11β-HSD1 assay in human liver microsomes (cortisone to cortisol, HPLC-MS/MS); type: biochemical; details: for IC50 / remaining activity at 100 µM: 200 nM cortisone, 15 min; for IC50: Mean ± SEM, n = 4; for remaining activity at 100 µM: human, 100 µM compound, read-out: 11β-HSD1 residual activity relative to the control (DMSO); for Mode Action: human 11β-HSD1, judged by α and Lineweaver-Burk plot
T1 construct: Human 11β-HSD1 in liver microsomes catalyzes the conversion of cortisone to cortisol; tissue Iphase (Beijing, China) H2610; host or cells: human liver microsomes (purchased)
Description: (§1) The 11β-HSD1 activity was determined by measuring the reductive catalysis of 11keto-steroid substrates, cortisone for human 11β-HSD1 and DHC for rat 11β-HSD1, which were converted to cortisol and CORT, respectively. The 11β-HSD1 assay was carried out as previously described with a minor modification. […] At the end of the reaction, acetonitrile (200 µL, CAT#: UN1648; Sigma) and internal standard testosterone-d5 (IS, T-d5, 10 μL, Zzbio, Shanghai, China) were added to the system, the organic layer was extracted, and 10 µL was injected into the HPLC-MS/MS system to measure cortisol, or CORT, as previously described.
(§2) The amount of cortisol, or CORT, in the organic layer was determined using an Acquity UPLC equipped with a BEH C18 column (2.1 mm, 50 mm, 1.7 m) and a 0.2 mm stainless steel frit filter and an XEVO TQD triple quadrupole mass spectrometer (Waters, Milford, MA, USA), as previously described. The mobile phase was a mixture of solvents A (0.1% formic acid in water) and B (acetonitrile) combined in the following gradient program: 5–5% B (0–0.5 min), 5–95% B (0.5–1.0 min), 95–95% B (1.0–2.0 min), and 95–5% B (2.0–2.1 min). The injection volume was 6 µL, and the flow rate was 0.40 mL/min. Before the second injection, a re-equilibration period of 0.9 min was set. The temperatures were 4 °C for the sample and 40 °C for column. Mass spectrometric detection was carried out using a Waters Corporation XEVO TQD triple quadruple mass spectrometer with an ESI source. For cortisol and IS, the multiple reaction monitoring mode transitions were m/z 358.3→340.3 and m/z 237.2→194.3. Data collection and instrument control were performed using Masslynx 4.1 software (Waters Corp., Milford, MA, USA). Cortisol, or CORT, standards were prepared by dissolving them in methanol. […] The enzymatic activity obtained by measuring the conversion rate (%) of cortisone to cortisol for human 11β-HSD1 or DHC to CORT for rat 11β-HSD1 was calculated.
(§3) The time curve of the 11β-HSD1 reaction was prepared by a linear regression using GraphPad version 8.0 (GraphPad, San Diego, CA, USA). […] The lineweaver-Burk plot after linear regression was also carried out to judge the mode of action.

rat 11β-HSD1 = biological target: T2, rat 11β-HSD1 (Rattus norvegicus, UniProt P16232); assay: Rat 11β-HSD1 assay in rat liver microsomes (DHC to CORT, HPLC-MS/MS); type: biochemical; details: for remaining activity at 100 µM: read-out: 11β-HSD1 residual activity relative to the control (DMSO); for Mode Action: rat 11β-HSD1, judged by α and Lineweaver-Burk plot; for α (mixed model): rat liver 11β-HSD1
T2 construct: Rat 11β-HSD1 in liver microsomes catalyzes the conversion of DHC to CORT; from tissue; host or cells: liver microsomes of male Sprague-Dawley rats (age 3 months), prepared in house
Description: The preparation of rat liver microsomes was carried out as previously reported. In this preparation procedure, rat livers were homogenized in sucrose (0.25 M) containing PBS (0.01 M, pH 7.2). […] The pellets were resuspended in cold PBS by homogenization, and the concentration of microsomal protein was determined using the Bio-Rad Protein Assay Kit (CAT#: P0010; Beyotime, Jiangsu, China) according to the manufacturer’s instructions.
as §1, §2, §3

[1] = ZINC database ref 39; cited from earlier work
[2] = substrate, human liver microsomes, Michaelis-Menten
[3] = rat, 100 µM compound, 200 nM DHC, 15 min
[4] = substrate, rat liver microsomes, Michaelis-Menten
[5] = human liver microsomes, read-out: IC50

T2 sequence (P16232 whole entry): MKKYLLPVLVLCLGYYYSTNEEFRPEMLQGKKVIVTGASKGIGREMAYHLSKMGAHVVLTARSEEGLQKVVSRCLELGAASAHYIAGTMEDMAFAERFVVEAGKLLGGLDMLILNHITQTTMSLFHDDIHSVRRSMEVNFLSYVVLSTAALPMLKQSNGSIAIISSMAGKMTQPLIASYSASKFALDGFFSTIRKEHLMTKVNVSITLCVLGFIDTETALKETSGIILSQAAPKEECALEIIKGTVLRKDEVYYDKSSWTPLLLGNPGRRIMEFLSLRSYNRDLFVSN
T1 sequence (P28845 whole entry): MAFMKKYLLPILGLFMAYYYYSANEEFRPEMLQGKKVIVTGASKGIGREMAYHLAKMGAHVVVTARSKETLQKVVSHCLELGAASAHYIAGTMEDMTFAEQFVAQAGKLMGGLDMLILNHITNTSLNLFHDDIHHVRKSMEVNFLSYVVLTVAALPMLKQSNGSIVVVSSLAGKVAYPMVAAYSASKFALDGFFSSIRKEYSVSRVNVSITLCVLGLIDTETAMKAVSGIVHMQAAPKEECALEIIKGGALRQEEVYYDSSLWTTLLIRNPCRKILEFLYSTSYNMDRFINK

Row | SMILES | IC50 (human 11β-HSD1; IC50, human liver microsomes) | remaining activity at 100 µM (human 11β-HSD1) | IC50 (rat 11β-HSD1) | remaining activity at 100 µM (rat 11β-HSD1; [3]) | LogP [1] | Ki (human 11β-HSD1) | Mode Action (human 11β-HSD1) | further results
1 | C[C@]12CCC(=O)C=C1CC[C@@H]1[C@@H]2C(=O)C[C@@]2(C)[C@H]1CC[C@]2(O)C(=O)CO [cortisone, reference compound] | – | – | – | – | – | – | – | Km (human 11β-HSD1; [2]): 930 ± 220 nM; Vmax (human 11β-HSD1; [2]): 253.2 ± 20.5 pmol/mg/min
2 | CC(C)(c1ccc(O)cc1)c1ccc(O)cc1 [BPA, bisphenol A, reference compound] | 297 ± 2.99 µM | > 50% | 36.8 ± 1.09 µM | ≤ 50% | 3.424 and 3.42 | – | – | –
3 | C[C@]12CC(=O)[C@H]3[C@@H](CCC4=CC(=O)CC[C@@]43C)[C@@H]1CC[C@@H]2C(=O)CO [DHC, 11-dehydrocorticosterone, reference compound] | – | – | – | – | – | – | – | Km (rat 11β-HSD1; [4]): 940 ± 90 nM; Vmax (rat 11β-HSD1; [4]): 1072 ± 115.5 pmol/mg/min
4 | CC(C)c1cc(C(C)(C)c2ccc(O)c(C(C)C)c2)ccc1O [BPG, 4,4′-(propane-2,2-diyl)bis(2-isopropylphenol)] | 5.06 ± 0.07 µM | ≤ 50% | 104 ± 1.52 µM | ≤ 50% | 5.671 | 5.33 µM | competitive inhibitors | Ki (rat 11β-HSD1): 88.6 µM; Mode Action (rat 11β-HSD1): mixed/competitive inhibitors; α (mixed model) (rat 11β-HSD1): 5.78
5 | CC(C)(c1ccc(O)c(-c2ccccc2)c1)c1ccc(O)c(-c2ccccc2)c1 [BPH, 2,2-bis(2-hydroxy-5-biphenylyl)propane] | 0.75 ± 0.02 µM | ≤ 50% | 74.2 ± 0.98 µM | ≤ 50% | 6.758 | 0.44 µM | competitive inhibitors | Ki (rat 11β-HSD1): 74.6 µM; Mode Action (rat 11β-HSD1): mixed/competitive inhibitors; α (mixed model) (rat 11β-HSD1): ∞
6 | C=CCc1cc(C(C)(C)c2ccc(O)c(CC=C)c2)ccc1O [DABPA, 2,2′-diallyl BPA] | 13.4 ± 0.19 µM | ≤ 50% | 132 ± 1.66 µM | > 50% | 4.881 | 14 µM | competitive inhibitors | –
7 | COc1ccc(C(C)(C)c2ccc(OC)cc2)cc1 [BPAME, 4,4′-(propane-2,2-diyl)bis(methoxybenzene)] | – | ≤ 50% | – | > 50% | 4.03 | – | competitive inhibitors | IC50 (human 11β-HSD1; [5]): 33.1 ± 0.57 µM; Ki (human 11β-HSD1; human liver microsomes, enzyme kinetics-inhibition (mixed model), read-out: Ki (inhibition constant, measured)): 33.8 µM; IC50 (rat 11β-HSD1; rat liver microsomes, 200 nM DHC, 15 min, Mean ± SEM, n = 4, read-out: IC50): 206 ± 2.16 µM
8 | Cc1cc(C(C)(C)c2cc(C)c(O)c(C)c2)cc(C)c1O [TMBPA, 2,2-bis(4-hydroxy-3,5-dimethylphenyl)propane] | – | > 50% | – | – | – | – | – | IC50 (human 11β-HSD1; [5]): 319.2 ± 2.78 µM; 11β-HSD1 residual activity relative to the control (DMSO) (rat 11β-HSD1; [3]): ineffective
9 | Cc1cc(C(C)(C)c2ccc(O)c(C)c2)ccc1O [DMBPA, 2,2-bis(4-hydroxy-3-methylphenyl)propane] | 30.2 ± 0.71 µM | ≤ 50% | – | > 50% | 4.041 and 4.04 | 31 µM | competitive inhibitors | –
